Results: patent US9402827B2, “Treatment of gout” (ARDEA BIOSCIENCES, INC., priority 2010, dated 2016)
Where “and” joins values, the source holds several entries; their conditions need not be identical. Identical values can stand only once.

Columns and labels:
[1] = tested on: monosodium urate (MSU) crystal injection-induced inflammation; experiment: In vivo MSU-induced inflammation, rat air pouch study (Example 3B); design: species or system Sprague-Dawley rats; settings: for Extravasation (optical absorbance at 620 nm), Av / Extravasation (optical absorbance at 620 nm), individual rats 1-10 / Exudate volume, Av / Exudate volume, individual rats 1-10 / Total white blood cell count, Av / Total white blood cell count, individual rats 1-10: 4 h after MSU
Protocol: (Air Pouch studies) were unpacked, placed in cages, a health inspection performed and a number assigned. […] Under anesthesia, 30 mL sterile air was injected subcutaneously on day 0 and day 3. Vehicle (water) or Lesinurad were administered orally. On the day of the experiment, rats were dosed with Vehicle, Lesinurad p.o., and/or colchicine s.c. (Sigma, Cat.#C9754, Lot.#188K1131). […] The pouch was gently massaged and the exudate was immediately removed from the air pouch. The exudate volume was measured and recorded for each animal. […] The supernatants were stored at −20° C. for cytokine analysis. […] Plasma extravasation was measured by optical absorbance at 620 nm for each exudate sample.

[2] = tested on: MSU-induced knee joint swelling; experiment: In vivo MSU-induced inflammation, rat knee joint study (Example 3C); design: species or system Sprague-Dawley rats; settings: for Average increase in knee diameter: 4 h after MSU
Protocol: [table] Groups 1 and 2 were orally dosed with Vehicle (sterile water) once daily for seven days from Day 1. […] Groups 6 and 7 were orally dosed with Lesinurad once daily for seven days from Day 1; Group 7 also received colchicine administered subcutaneously on Day 7. […] The injection was performed from the anterior aspect of the knee joint, which was slightly extended and flexed. […] Four hours after MSU administration, the rats were anesthetized, the diameter of right knee joints were measured with calipers; surface temperature for right knees were measured. Synovial lavage fluid from the knee was collected by injecting phosphate buffered saline with 1% BSA (0.2 mL) into the joint cavity, the fluid then collected, centrifuged and the supernatants stored at −80° C.

TNF-α = experiment: Effect of rilonacept on TNF-α production (Example 1, FIG. 2A); assay type: cell-based; settings: 6 hour time point
Excerpt: (§1) FIG. 2 illustrates the effect of rilonacept […] on TNF-α (FIG. 2A) and IL-1β production (FIG. 2B).
(§2) Activation of the inflammasome results in the release of preformed IL-1, which goes on to activate other targets as well as increase the production of IL-1 itself.

IL-1β = experiment: Effect of rilonacept on IL-1β production (Example 1, FIG. 2B); assay type: cell-based
Excerpt: as §1, §2

[3] = in certain instances; cited from earlier work
gout flares = settings: allopurinol dosed with colchicine (0.5 mg QD); separate study; cited from earlier work
[4] = in certain instances; cited from earlier work; remark: listed apart in the source

COc1cc2c(c(OC)c1OC)-c1ccc(OC)c(=O)cc1[C@@H](NC(C)=O)CC2 [Colchicine, reference compound]
Extravasation (optical absorbance at 620 nm), Av ([1]; Colchicine 0.01 mg/kg s.c.): 1.78
Extravasation (optical absorbance at 620 nm), individual rats 1-10 ([1]; Colchicine 0.01 mg/kg s.c.): 1.34 and 1.53 and 1.46 and 1.67 and 1.63 and 1.74 and 2.62 and 2.39 and 1.99 and 1.42
Exudate volume, Av ([1]; Colchicine 0.01 mg/kg s.c.): 9.8 mL
Exudate volume, individual rats 1-10 ([1]; Colchicine 0.01 mg/kg s.c.): 12 mL (2×) and 8 mL (3×) and 10 mL and 9 mL (2×) and 11 mL (2×)
Total white blood cell count, Av ([1]; Colchicine 0.01 mg/kg s.c.): 1.65 ×10^8
Total white blood cell count, individual rats 1-10 ([1]; Colchicine 0.01 mg/kg s.c.): 0.87 ×10^8 and 2.72 ×10^8 and 3.40 ×10^8 and 0.63 ×10^8 and 2.27 ×10^8 and 0.90 ×10^8 and 2.22 ×10^8 and 2.42 ×10^8 and 0.69 ×10^8 and 0.34 ×10^8
Extravasation (optical absorbance at 620 nm), Av ([1]; Colchicine 0.1 mg/kg s.c.): 1.29
Extravasation (optical absorbance at 620 nm), individual rats 1-10 ([1]; Colchicine 0.1 mg/kg s.c.): 1.25 and 1.41 and 1.31 and 1.74 and 0.68 and 1.75 and 1.72 and 0.98 and 0.83 and 1.22
Exudate volume, Av ([1]; Colchicine 0.1 mg/kg s.c.): 9.86 mL
Exudate volume, individual rats 1-10 ([1]; Colchicine 0.1 mg/kg s.c.): 9 mL (2×) and 8 mL (2×) and 10 mL and 7.8 mL and 9.8 mL and 11 mL (2×) and 15 mL
Total white blood cell count, Av ([1]; Colchicine 0.1 mg/kg s.c.): 0.78 ×10^8
Total white blood cell count, individual rats 1-10 ([1]; Colchicine 0.1 mg/kg s.c.): 0.41 ×10^8 and 0.14 ×10^8 and 2.60 ×10^8 and 1.21 ×10^8 and 0.32 ×10^8 and 1.27 ×10^8 and 1.51 ×10^8 and 0.03 ×10^8 and 0.06 ×10^8 and 0.27 ×10^8
Extravasation (optical absorbance at 620 nm), Av ([1]; Colchicine 1 mg/kg s.c.): 0.89
Extravasation (optical absorbance at 620 nm), individual rats 1-10 ([1]; Colchicine 1 mg/kg s.c.): 0.75 and 0.36 and 1.17 and 1.19 and 1.24 (2×) and 1.12 and 0.52 and 0.73 and 0.59
Exudate volume, Av ([1]; Colchicine 1 mg/kg s.c.): 6.13 mL
Exudate volume, individual rats 1-10 ([1]; Colchicine 1 mg/kg s.c.): 8 mL (2×) and 4.4 mL and 7 mL and 5.9 mL and 8.6 mL and 5.6 mL and 4.6 mL and 4 mL and 5.2 mL
Total white blood cell count, Av ([1]; Colchicine 1 mg/kg s.c.): 0.56 ×10^8
Total white blood cell count, individual rats 1-10 ([1]; Colchicine 1 mg/kg s.c.): 0.36 ×10^8 and 0.01 ×10^8 and 3.43 ×10^8 and 0.32 ×10^8 and 0.52 ×10^8 and 0.26 ×10^8 (2×) and 0.35 ×10^8 and 0.03 ×10^8 and 0.09 ×10^8
Number of white blood cells, in words ([1]; Colchicine 0.01, 0.1, 1 mg/kg): dose-dependently lowered the number of white blood cells
Extravasation, in words ([1]; Colchicine 0.01, 0.1 and 1 mg/kg): dose-dependent decrease in extravasation
Exudate volume, in words ([1]; colchicine 1 mg/kg): significantly reduced exudate volume
Exudate volume, in words ([1]; colchicine 0.01 and 0.1 mg/kg): did not significantly reduce exudate volume
Average increase in knee diameter ([2]; Colchicine 0.1 mg/kg s.c., p < 0.01 vs Vehicle): 0.71 mm
Average increase in knee diameter ([2]; Colchicine 0.3 mg/kg s.c., p < 0.001 vs Vehicle): 0.53 mm
Average increase in knee diameter ([2]; Colchicine 1 mg/kg s.c., p < 0.001 vs Vehicle): 0.41 mm
MSU-induced increase in knee diameter, in words ([2]; Colchicine 0.1, 0.3 and 1 mg/kg): dose-dependently decreased the MSU-induced increase in knee diameter

rilonacept
TNF-α production (TNF-α): only inhibits the production of TNF-α
IL-1 production (IL-1β): does not reduce IL-1 production

CCCN(CCC)S(=O)(=O)c1ccc(C(=O)O)cc1 [probenecid]
individuals who fail to achieve reduction of serum uric acid levels <6 mg/dL [3]: 25-50%

Oc1ncnc2[nH]ncc12 [allopurinol]
patients experiencing flares (gout flares): 28%
incidence of side effects, of all individuals treated [4]: 20%
